Data taken from US20060069132A1, “Azolecarboxamide herbicides” (priority 2004, published 2006).

Columns and labels:
barnyardgrass [1] = test: Test B pre-/postemergence herbicide test; format: in vivo, Echinochloa crus-galli; details: for Plant response rating (0 to 100 scale), Barnyardgrass: 0 is no effect, preemergence; for Barnyardgrass plant response rating: postemergence
In short: (§1)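 Species tested were Echinochloa crus-galli, Ipomoea coccinea, Xanthium strumarium and Oryza sativa, treated both before emergence and at the 1- to 4-leaf stage; rice and barnyardgrass were also tested under flooding at 2 leaves. Greenhouse incubation lasted 13–15 days before visual 0–100 scoring.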

Surinam grass = test: Test B pre-/postemergence herbicide test; format: in vivo, Urochloa decumbens; details: for Plant response rating (0 to 100 scale), Surinam Grass: 0 is no effect, 100 is complete control, preemergence; for Surinam Grass plant response rating: scale 0 (no effect) to 100 (complete control)
In short: (§2)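 Plants compared with untreated controls 13–15 days post-treatment and given a visual 0–100 injury score. Applications: preemergence to seeds; postemergence at 1- to 4-leaf (2–18 cm); paddy species flooded, 2-leaf stage. Vehicle non-phytotoxic, surfactant included.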

cocklebur = test: Test B pre-/postemergence herbicide test; format: in vivo, Xanthium strumarium; details: for Plant response rating (0 to 100 scale), Cocklebur: 0 is no effect, preemergence; for Cocklebur plant response rating: postemergence
In short: as §1

corn = test: Test B pre-/postemergence herbicide test; format: in vivo, Zea mays; details: for Plant response rating (0 to 100 scale), Corn: 0 is no effect, preemergence; for Corn plant response rating: postemergence
In short: as §2

large crabgrass = test: Test B pre-/postemergence herbicide test; format: in vivo, Digitaria sanguinalis; details: for Plant response rating (0 to 100 scale), Crabgrass, Large: 0 is no effect, preemergence; for Crabgrass, Large plant response rating: postemergence
In short: as §2

giant foxtail = test: Test B pre-/postemergence herbicide test; format: in vivo, Setaria faberi; details: for Plant response rating (0 to 100 scale), Foxtail, Giant: 0 is no effect, preemergence; for Foxtail, Giant plant response rating: postemergence
In short: as §2

lambsquarters = test: Test B pre-/postemergence herbicide test; format: in vivo, Chenopodium album; details: for Lambsquarters plant response rating: scale 0 (no effect) to 100 (complete control)
In short: as §2

morningglory = test: Test B pre-/postemergence herbicide test; format: in vivo, Ipomoea coccinea; details: for Plant response rating (0 to 100 scale), Morningglory: 0 is no effect, 100 is complete control, preemergence; for Morningglory plant response rating: scale 0 (no effect) to 100 (complete control)
In short: as §1

pigweed = test: Test B pre-/postemergence herbicide test; format: in vivo, Amaranthus retroflexus; details: for Plant response rating (0 to 100 scale), Pigweed: 0 is no effect, 100 is complete control, preemergence; for Pigweed plant response rating: scale 0 (no effect) to 100 (complete control)
In short: as §2

velvetleaf = test: Test B pre-/postemergence herbicide test; format: in vivo, Abutilon theophrasti; details: for Plant response rating (0 to 100 scale), Velvetleaf: 0 is no effect, 100 is complete control, preemergence; for Velvetleaf plant response rating: scale 0 (no effect) to 100 (complete control)
In short: as §2

blackgrass = test: Test B postemergence herbicide test; format: in vivo, Alopecurus myosuroides; details: postemergence
In short: (§3)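 Plants grow to 1- to 4-leaf stage (2–18 cm) for postemergence spraying, or to 2-leaf stage for the paddy test. Formulated compound is applied. Greenhouse holding lasts 13–15 days. Response is scored visually relative to controls, 0 no effect to 100 complete control; a dash means no result.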

wheat = test: Test B postemergence herbicide test; format: in vivo, Triticum aestivum; parameters: key to Wheat plant response rating: 0 = no effect, 100 = complete control
In short: (§4)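 Visual ratings, 0 (no effect) to 100 (complete control), made versus controls after 13–15 d greenhouse. Paddy plants treated at 2-leaf stage; postemergence plants at 1- to 4-leaf stage, 2–18 cm tall.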

wild oat = test: Test B postemergence herbicide test; format: in vivo, Avena fatua; details: scale 0 (no effect) to 100 (complete control)
In short: as §4

rice = test: Test B flooded paddy test; format: in vivo, Oryza sativa; details: 1000 g ai/ha, scale 0 to 100 (0 no effect, 100 complete control)
In short: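 Formulated test chemicals went onto postemergence plants measuring 2 to 18 cm, at one to four leaves. For the paddy assay, species had reached two leaves. Scoring took place 13–15 days later by eye, relative to untreated plants, using 0 for no effect up to 100 for full control.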

[2] = system: small flower umbrella sedge; test: Test B flooded paddy test; format: in vivo, Cyperus difformis; details: 1000 g ai/ha, scale 0 to 100 (0 no effect, 100 complete control)
In short: as §3

ducksalad = test: Test B flooded paddy test; format: in vivo, Heteranthera limosa; details: 1000 g ai/ha, scale 0 to 100 (0 no effect, 100 complete control)
In short: as §3

barnyardgrass [3] = test: Test B flooded paddy test; format: in vivo, Echinochloa crus-galli; details: 1000 g ai/ha, scale 0 to 100 (0 no effect, 100 complete control)
In short: as §3

[4] = 125 g ai/ha, 100 is complete control
[5] = 125 g ai/ha, visual rating, scale 0 (no effect) to 100 (complete control)
[6] = 500 g ai/ha, scale 0 to 100, 0 is no effect, 100 is complete control
[7] = 125 g ai/ha, visual rating, postemergence
[8] = 125 g ai/ha, visual rating, scale 0 (no effect) to 100 (complete control), postemergence
[9] = 500 g ai/ha, scale 0 to 100, 0 no effect, 100 complete control, preemergence
[10] = Postemergence, 500 g ai/ha, scale 0 (no effect) to 100 (complete control)

SMILES | Plant response rating (0 to 100 scale), Barnyardgrass (barnyardgrass [1]; [4]) | Barnyardgrass plant response rating (barnyardgrass [1]; [5]) | Barnyardgrass plant response rating (barnyardgrass [1]; [6]) | Plant response rating (0 to 100 scale), Surinam Grass (Surinam grass; 125 g ai/ha) | Surinam Grass plant response rating (Surinam grass; [7]) | Plant response rating (0 to 100 scale), Cocklebur (cocklebur; [4]) | Cocklebur plant response rating (cocklebur; [5]) | Cocklebur plant response rating (cocklebur; [6]) | Plant response rating (0 to 100 scale), Corn (corn; [4]) | Corn plant response rating (corn; [5]) | Corn plant response rating (corn; [6]) | Plant response rating (0 to 100 scale), Crabgrass, Large (large crabgrass; [4]) | Crabgrass, Large plant response rating (large crabgrass; [5]) | Crabgrass, Large plant response rating (large crabgrass; [6]) | Plant response rating (0 to 100 scale), Foxtail, Giant (giant foxtail; [4]) | Foxtail, Giant plant response rating (giant foxtail; [5]) | Foxtail, Giant plant response rating (giant foxtail; [6]) | Lambsquarters plant response rating (lambsquarters; [7]) | Plant response rating (0 to 100 scale), Morningglory (morningglory; 125 g ai/ha) | Morningglory plant response rating (morningglory; [7]) | further results
CCc1nn(C(C)(C)C)nc1C(=O)Nc1cccc(C(=O)N(C)C)c1 [Compound 364] | 100 | 10 | 70 | 100 | 30 | 70 | 40 | 50 | 80 | 10 | 40 | 100 | 30 | 70 | 100 | 10 | 50 | 70 | 70 | 20 | Plant response rating (0 to 100 scale), Lambsquarters (lambsquarters; 125 g ai/ha, 0 is no effect, 100 is complete control, preemergence): 100; Plant response rating (0 to 100 scale), Pigweed (pigweed; 125 g ai/ha): 100; Pigweed plant response rating (pigweed; [7]): 40; Plant response rating (0 to 100 scale), Velvetleaf (velvetleaf; 125 g ai/ha): 100; Velvetleaf plant response rating (velvetleaf; [7]): 20; Blackgrass plant response rating (blackgrass; [5]): 30; Blackgrass plant response rating (blackgrass; [6]): 80; Wheat plant response rating (wheat; [8]): 10; Wheat plant response rating (wheat; [9]): 100; Oat, Wild plant response rating (wild oat; [7]): 20; Rice plant response rating (rice): 90; Sedge, Umbrella plant response rating [2]: 100; Ducksalad plant response rating (ducksalad): 100; Barnyardgrass plant response rating (barnyardgrass [3]): 90
CCc1nn(C(C)(C)CC)nc1C(=O)Nc1cc(C(=O)N2CC=CC2)ccc1F [Compound 371] | 0 | 0 | 0 | 10 | 0 | 0 | 20 | 30 | 0 | 10 | 10 | 10 | 0 | 10 | 10 | 10 | 20 | 40 | 0 | 40 | Surinam Grass plant response rating (Surinam grass; Postemergence, 500 g ai/ha): 10; Lambsquarters plant response rating (lambsquarters; Postemergence, 500 g ai/ha): 70; Morningglory plant response rating (morningglory; Postemergence, 500 g ai/ha): 70; Plant response rating (0 to 100 scale), Pigweed (pigweed; 125 g ai/ha): 0; Pigweed plant response rating (pigweed; [7]): 10; Pigweed plant response rating (pigweed; Postemergence, 500 g ai/ha): 30; Plant response rating (0 to 100 scale), Velvetleaf (velvetleaf; 125 g ai/ha): 0; Velvetleaf plant response rating (velvetleaf; [7]): 10; Velvetleaf plant response rating (velvetleaf; Postemergence, 500 g ai/ha): 20; Blackgrass plant response rating (blackgrass; [5]): 0; Blackgrass plant response rating (blackgrass; [6]): 20; Wheat plant response rating (wheat; [8]): 0; Wheat plant response rating (wheat; [9]): 0; Wheat plant response rating (wheat; [10]): 10; Oat, Wild plant response rating (wild oat; [7]): 0; Oat, Wild plant response rating (wild oat; Postemergence, 500 g ai/ha): 10; Rice plant response rating (rice): 40; Sedge, Umbrella plant response rating [2]: 60; Ducksalad plant response rating (ducksalad): 90; Barnyardgrass plant response rating (barnyardgrass [3]): 30
CCc1nn(C(C)(C)CC)nc1C(=O)Nc1cccc(OC(F)(F)F)c1 [Compound 374] | 0 | 10 | 20 | 10 | 10 | 0 | 0 | 30 | 0 | 10 | 20 | 0 | 20 | 20 | 10 | 20 | 20 | 10 | 0 | 20 | Surinam Grass plant response rating (Surinam grass; Postemergence, 500 g ai/ha): 20; Lambsquarters plant response rating (lambsquarters; Postemergence, 500 g ai/ha): 70; Morningglory plant response rating (morningglory; Postemergence, 500 g ai/ha): 20; Plant response rating (0 to 100 scale), Pigweed (pigweed; 125 g ai/ha): 30; Pigweed plant response rating (pigweed; [7]): 30; Pigweed plant response rating (pigweed; Postemergence, 500 g ai/ha): 70; Plant response rating (0 to 100 scale), Velvetleaf (velvetleaf; 125 g ai/ha): 0; Velvetleaf plant response rating (velvetleaf; [7]): 10; Velvetleaf plant response rating (velvetleaf; Postemergence, 500 g ai/ha): 20; Blackgrass plant response rating (blackgrass; [5]): 10; Blackgrass plant response rating (blackgrass; [6]): 30; Wheat plant response rating (wheat; [8]): 0; Wheat plant response rating (wheat; [9]): 0; Wheat plant response rating (wheat; [10]): 20; Oat, Wild plant response rating (wild oat; [7]): 20; Oat, Wild plant response rating (wild oat; Postemergence, 500 g ai/ha): 40; Rice plant response rating (rice): 20; Sedge, Umbrella plant response rating [2]: 0; Ducksalad plant response rating (ducksalad): 50; Barnyardgrass plant response rating (barnyardgrass [3]): 40
